We go through six molecules from ChEMBL document CHEMBL1177819, “Monastrol analogs: a synthesis of pyrazolopyridine, benzopyranopyrazolopyridine, and oxygen-bridged azolopyrimidine derivatives and their biological screening” (Bioorg Med Chem Lett, 2010).

The target in data set [1] is T1, Kinesin-like protein KIF11 (Homo sapiens) (UniProt P52732).
T1 sequence (whole entry): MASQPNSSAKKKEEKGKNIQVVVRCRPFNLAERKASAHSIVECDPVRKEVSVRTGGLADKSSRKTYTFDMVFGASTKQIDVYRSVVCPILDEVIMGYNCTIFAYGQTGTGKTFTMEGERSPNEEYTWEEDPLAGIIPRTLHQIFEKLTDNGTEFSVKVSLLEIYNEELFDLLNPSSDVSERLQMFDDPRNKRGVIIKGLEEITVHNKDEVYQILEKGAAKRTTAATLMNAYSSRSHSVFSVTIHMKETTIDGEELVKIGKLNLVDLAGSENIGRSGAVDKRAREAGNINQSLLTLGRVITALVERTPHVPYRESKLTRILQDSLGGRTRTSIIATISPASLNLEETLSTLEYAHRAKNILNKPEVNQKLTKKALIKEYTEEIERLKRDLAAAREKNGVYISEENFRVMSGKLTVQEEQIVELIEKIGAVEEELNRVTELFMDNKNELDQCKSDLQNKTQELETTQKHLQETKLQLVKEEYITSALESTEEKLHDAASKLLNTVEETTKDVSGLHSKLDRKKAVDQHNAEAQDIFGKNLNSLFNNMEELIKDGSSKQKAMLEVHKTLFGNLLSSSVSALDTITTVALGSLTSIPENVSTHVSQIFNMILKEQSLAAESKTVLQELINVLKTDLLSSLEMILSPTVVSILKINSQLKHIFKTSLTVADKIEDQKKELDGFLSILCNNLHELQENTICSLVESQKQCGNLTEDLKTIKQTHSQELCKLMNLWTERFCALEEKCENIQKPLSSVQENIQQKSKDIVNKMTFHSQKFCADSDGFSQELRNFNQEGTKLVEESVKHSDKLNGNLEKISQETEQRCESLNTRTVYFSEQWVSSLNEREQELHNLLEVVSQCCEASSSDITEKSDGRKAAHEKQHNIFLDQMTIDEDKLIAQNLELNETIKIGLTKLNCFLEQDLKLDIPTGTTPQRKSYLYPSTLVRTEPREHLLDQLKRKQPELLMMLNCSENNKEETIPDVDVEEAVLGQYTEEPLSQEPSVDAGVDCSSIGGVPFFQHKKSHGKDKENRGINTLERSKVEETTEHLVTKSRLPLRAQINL
Briefly: Inhibition of kinasin spindle protein by ATPase assay.

In data set [2] the target is T1, Kinesin-like protein KIF11 (Homo sapiens). As to the kind of experiment: Inhibition of kinasin spindle protein in human HeLa cells assessed as inhibition of induction of mitotic arrest. Type of data set: cell-based.
The subject of a further data set is HeLa. Briefly: Toxicity in human HeLa cells at 100 uM. The data set is classed as cell-based.
A short description of data set [3]: Toxicity in african green monkey BSC1 cells at 100 uM. Type of data set: cell-based. Conditions: chlorocebus aethiops, bsc-1, 100 µM.

Active and inactive are the calls of the source. No cut-off for these calls is given here.

For the molecule `Cc1cc2n(n1)[C@H]1C[C@@](C)(N2)Oc2ccccc21`, the inhibition result in data set [1] and in data set [2] was “inactive” in each case.
As for `C[C@@]12C[C@@H](c3ccccc3O1)n1nnnc1N2`, the inhibition entry in data set [1] and in data set [2] was “inactive” in each case.
On to `CC1=C2C(=O)Oc3ccccc3C2c2c(n[nH]c2C)N1` (centres undefined), for which the inhibition entry in data set [1] and in data set [2] was “inactive” in each case.
In the case of `C[C@@]12C[C@@H](c3ccccc3O1)N1CCSC1=N2`, the inhibition result in data set [1] and in data set [2] was “inactive” in each case.
For the molecule `COC(=O)C1=C(C)Nc2n[nH]c(C)c2C1c1cccc(O)c1` (centres undefined), the inhibition entry in data set [1] and in data set [2] was “inactive” each time.
Consider `C[C@@]12C[C@@H](c3ccccc3O1)n1c(nc3ccccc31)N2`, for which the inhibition entry in data set [1] and in data set [2] was “inactive” each time. The Activity entry (in the data set with HeLa; in data set [3]) was “Toxic” in each case.
